Reference: patent US20080004253A1, “Thiazolopyrimidine modulators of TRPV1” (priority 2006, published 2008)

Columns and labels:
rat TRPV1 = target: T1, rat TRPV1 (Rattus norvegicus, UniProt O35433); test: Functional assay: block of capsaicin-induced Ca2+ influx, rat assay (rTRPV1/HEK293, FLIPR); type: cell-based; conditions: rTRPV1/HEK293 cells, capsaicin challenge, Fluo-3 fluorescence; mean; > value = solubility limit in assay medium
T1 construct: expressed in transfected cells; host or cells: HEK293 (rTRPV1/HEK293), geneticin selection
Procedure, shortened: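 Compounds, as free base or TFA salt, tested from 10 μM in three-fold steps on rTRPV1-transfected HEK293 cells, with 30 min preincubation in low-calcium (20 μM) buffer. Capsaicin-evoked Ca2+ influx measured by FLIPR fluo3 signal before and 100 s after addition. Averaged IC50 from non-linear fits.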

human TRPV1 = target: T2, human TRPV1 (Homo sapiens, UniProt Q8NER1); test: Functional assay: block of capsaicin-induced Ca2+ influx, human assay (hTRPV1/HEK293, FLIPR); type: cell-based; conditions: hTRPV1/HEK293 cells, 150 nM capsaicin challenge, Fluo-3 fluorescence; mean; > value = solubility limit in assay medium
T2 construct: expressed in transfected cells; host or cells: HEK293 (hTRPV1/HEK293), zeocin selection
Procedure, shortened: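 HEK293 cells stably expressing human TRPV1, fluo3-loaded, preincubated 30 min with compound (serial 3-fold dilutions from 10 μM, duplicate) in 20 μM Ca2+ buffer. Capsaicin response taken as fluo3 fluorescence change before vs 100 s after agonist; IC50 by non-linear regression, mean values; free base or TFA salt.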

T2 sequence (Q8NER1 whole entry): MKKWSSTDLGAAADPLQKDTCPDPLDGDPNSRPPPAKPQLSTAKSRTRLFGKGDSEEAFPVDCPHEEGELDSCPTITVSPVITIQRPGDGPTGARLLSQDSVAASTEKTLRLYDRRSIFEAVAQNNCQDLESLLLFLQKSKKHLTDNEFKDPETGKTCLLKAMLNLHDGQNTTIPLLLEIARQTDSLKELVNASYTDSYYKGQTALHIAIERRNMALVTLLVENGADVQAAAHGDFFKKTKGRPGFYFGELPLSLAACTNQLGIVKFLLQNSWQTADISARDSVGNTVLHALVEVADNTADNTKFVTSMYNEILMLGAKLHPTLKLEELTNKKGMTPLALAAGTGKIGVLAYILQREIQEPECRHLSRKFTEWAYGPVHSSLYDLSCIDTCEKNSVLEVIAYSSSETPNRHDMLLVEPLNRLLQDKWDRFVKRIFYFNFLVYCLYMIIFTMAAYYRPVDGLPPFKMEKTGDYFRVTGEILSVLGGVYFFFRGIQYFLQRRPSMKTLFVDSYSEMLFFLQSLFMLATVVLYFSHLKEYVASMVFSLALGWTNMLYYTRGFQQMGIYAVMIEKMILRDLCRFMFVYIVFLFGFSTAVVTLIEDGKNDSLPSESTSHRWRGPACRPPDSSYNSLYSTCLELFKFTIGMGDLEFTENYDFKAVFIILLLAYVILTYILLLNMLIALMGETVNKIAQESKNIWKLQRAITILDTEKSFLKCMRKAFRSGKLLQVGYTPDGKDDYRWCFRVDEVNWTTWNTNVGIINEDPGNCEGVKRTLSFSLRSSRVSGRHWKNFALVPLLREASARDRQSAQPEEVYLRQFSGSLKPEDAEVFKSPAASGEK
T1 sequence (O35433 whole entry): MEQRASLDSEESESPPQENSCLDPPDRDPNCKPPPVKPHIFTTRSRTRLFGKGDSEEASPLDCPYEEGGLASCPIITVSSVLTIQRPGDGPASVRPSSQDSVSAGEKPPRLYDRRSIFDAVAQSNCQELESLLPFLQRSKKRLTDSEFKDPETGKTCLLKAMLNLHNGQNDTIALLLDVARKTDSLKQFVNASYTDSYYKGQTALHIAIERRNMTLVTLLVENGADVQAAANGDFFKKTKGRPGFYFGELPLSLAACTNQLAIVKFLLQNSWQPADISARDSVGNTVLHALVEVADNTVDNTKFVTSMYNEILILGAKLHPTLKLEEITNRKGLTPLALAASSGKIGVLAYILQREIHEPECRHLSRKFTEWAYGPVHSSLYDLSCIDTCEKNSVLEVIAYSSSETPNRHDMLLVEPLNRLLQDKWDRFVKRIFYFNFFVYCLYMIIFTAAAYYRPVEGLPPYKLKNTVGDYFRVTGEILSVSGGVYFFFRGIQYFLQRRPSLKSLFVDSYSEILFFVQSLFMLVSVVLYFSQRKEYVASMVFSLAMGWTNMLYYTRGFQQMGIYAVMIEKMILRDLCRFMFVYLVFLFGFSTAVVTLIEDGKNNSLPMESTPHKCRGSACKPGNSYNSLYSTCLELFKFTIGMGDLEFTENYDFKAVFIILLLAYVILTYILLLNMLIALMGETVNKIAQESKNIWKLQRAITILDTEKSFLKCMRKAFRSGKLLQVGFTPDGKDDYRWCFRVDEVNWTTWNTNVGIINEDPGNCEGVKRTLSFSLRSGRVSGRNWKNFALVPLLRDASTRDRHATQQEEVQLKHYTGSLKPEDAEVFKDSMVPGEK

| SMILES | IC50 (rat TRPV1) [nM] | IC50 (human TRPV1) [nM] |
| --- | --- | --- |
| CSc1ccc(Nc2nc(C)nc3sc(Nc4c(C)cccc4C)nc23)cc1 [Example 114, N^2-(2,6-Dimethyl-phenyl)-5-methyl-N^7-(4-methylsulfanyl-phenyl)-thiazolo[5,4-d]pyrimidine-2,7-diamine] | 13 | 39 |
| Cc1nc(Nc2ccc(SC(C)C)cc2)c2nc(Nc3c(C)cccc3C)sc2n1 [Example 106, N^2-(2,6-Dimethyl-phenyl)-N^7-(4-isopropylsulfanyl-phenyl)-5-methyl-thiazolo[5,4-d]pyrimidine-2,7-diamine] | 26 | 25 |
| FC(F)(F)c1ccc(Nc2nc(N3CCNCC3)nc3sc(Nc4c(Cl)cccc4Cl)nc23)cc1Cl [Example 162, N^7-(3-Chloro-4-trifluoromethyl-phenyl)-N^2-(2,6-dichloro-phenyl)-5-piperazin-1-yl-thiazolo[5,4-d]pyrimidine-2,7-diamine] | 3080 | 4280 |
| OCC1CN(c2nc(Nc3ccc(C(F)(F)F)c(Cl)c3)c3nc(Nc4c(Cl)cccc4Cl)sc3n2)CCO1 (racemic) [Example 155, (racemic)-{4-[7-(3-Chloro-4-trifluoromethyl-phenylamino)-2-(2,6-dichloro-phenylamino)-thiazolo[5,4-d]pyrimidin-5-yl]-morpholin-2-yl}-methanol] | 414 | 1540 |
| Cc1ccccc1Nc1nc2c(Nc3ccc(C(F)(F)F)nc3)ncnc2s1 [Example 218, N^2-(2-Methylphenyl)-N^7-[6-(trifluoromethyl)pyridin-3-yl][1,3]thiazolo[5,4-d]pyrimidine-2,7-diamine] | 24 | 55 |
| Cc1cccc(C)c1Nc1nc2c(NC3Cc4ccccc4C3)ncnc2s1 [Example 41, N^2-(2,6-Dimethyl-phenyl)-N^7-indan-2-yl-thiazolo[5,4-d]pyrimidine-2,7-diamine] | 2040 | > 6670 |
| Cc1nc(Nc2ccc(C(F)(F)F)cc2)c2nc(Nc3cccc4nsnc34)sc2n1 [Example 205, N^2-Benzo[1,2,5]thiadiazol-4-yl-5-methyl-N^7-(4-trifluoromethyl-phenyl)-thiazolo[5,4-d]pyrimidine-2,7-diamine] | 12500 | 16600 |
| Cc1nc(Nc2ccc(C(F)(F)F)c(F)c2)c2nc(Nc3c(C)cccc3C)sc2n1 [Example 121, N^2-(2,6-Dimethyl-phenyl)-N^7-(3-fluoro-4-trifluoromethyl-phenyl)-5-methyl-thiazolo[5,4-d]pyrimidine-2,7-diamine] | 25 | 82 |
| Cc1nc(NC2CCC(C(C)(C)C)CC2)c2nc(Nc3c(Cl)cccc3Cl)sc2n1 (mixture of isomers) [Example 8, N^7-(4-tert-Butyl-cyclohexyl)-N^2-(2,6-dichloro-phenyl)-5-methyl-thiazolo[5,4-d]pyrimidine-2,7-diamine] | 70 | 1090 |
| FC(F)(F)c1ccc(Nc2ncnc3sc(Nc4ccccc4)nc23)cn1 [Example 21, N^2-Phenyl-N^7-(6-trifluoromethyl-pyridin-3-yl)-thiazolo[5,4-d]pyrimidine-2,7-diamine] | 299 | 557 |
| Cc1nc(Nc2ccc(N(C)S(C)(=O)=O)cc2)c2nc(Nc3c(C)cccc3C)sc2n1 [Example 164, N-{4-[2-(2,6-Dimethyl-phenylamino)-5-methyl-thiazolo[5,4-d]pyrimidin-7-ylamino]-phenyl}-N-methyl-methanesulfonamide] | 626 | 6510 |

Continued, values first:

| IC50 (rat TRPV1) [nM] | IC50 (human TRPV1) [nM] | SMILES |
| --- | --- | --- |
| 98 | 101 | CC(C)(C#N)c1ccc(Nc2ncnc3sc(Nc4c(Cl)cccc4Cl)nc23)cc1 [Example 228, 2-[4-({2-[(2,6-Dichlorophenyl)amino][1,3]thiazolo[5,4-d]pyrimidin-7-yl}amino)phenyl]-2-methylpropanenitrile] |
| 112 | 203 | Cc1nc(Nc2ccc(SC(F)(F)F)c(Cl)c2)c2nc(Nc3c(Cl)cccc3Cl)sc2n1 [Example 135, N^7-(3-Chloro-4-trifluoromethylsulfanyl-phenyl)-N^2-(2,6-dichloro-phenyl)-5-methyl-thiazolo[5,4-d]pyrimidine-2,7-diamine] |
| 6 | 17 | FC(F)(F)c1ccc(Nc2nc(NCCCN3CCOCC3)nc3sc(Nc4c(Cl)cccc4Cl)nc23)cc1 [Example 100, N^2-(2,6-Dichloro-phenyl)-N^5-(3-morpholin-4-yl-propyl)-N^7-(4-trifluoromethyl-phenyl)-thiazolo[5,4-d]pyrimidine-2,5,7-triamine] |
| 204 | 937 | Cc1cccc(C)c1Nc1nc2c(Nc3ccc4c(c3)OCCO4)ncnc2s1 [Example 150, N^7-(2,3-Dihydro-benzo[1,4]dioxin-6-yl)-N^2-(2,6-dimethyl-phenyl)-thiazolo[5,4-d]pyrimidine-2,7-diamine] |
| 178 | 207 | Cc1cccc(C)c1Nc1nc2c(Nc3ccc(C#N)nc3)ncnc2s1 [Example 29, 5-[2-(2,6-Dimethyl-phenylamino)-thiazolo[5,4-d]pyrimidin-7-ylamino]-pyridine-2-carbonitrile] |
| 3 | 12 | Cc1nc(Nc2ccc(C(C)(C)C)cc2)c2nc(Nc3c(C)cccc3C)sc2n1 [Example 244, N^7-(4-tert-Butyl-phenyl)-N^2-(2,6-dimethyl-phenyl)-5-methyl-thiazolo[5,4-d]pyrimidine-2,7-diamine] |
| > 20000 | 9740 | CS(=O)(=O)c1ccc(Nc2ncnc3sc(Nc4ccccc4S(C)(=O)=O)nc23)cc1 [Example 198, N^2-(2-Methanesulfonyl-phenyl)-N^7-(4-methanesulfonyl-phenyl)-thiazolo[5,4-d]pyrimidine-2,7-diamine] |
| 2 | 43 | CC(C)(C(=O)O)c1ccc(Nc2ncnc3sc(Nc4c(Cl)cccc4Cl)nc23)cc1 [Example 230, 2-[4-({2-[(2,6-Dichlorophenyl)amino][1,3]thiazolo[5,4-d]pyrimidin-7-yl}amino)phenyl]-2-methylpropanoic acid] |
| 56 | 14 | CC1CCCCN1c1nc(Nc2ccc(C(F)(F)F)cc2)c2nc(Nc3c(Cl)cccc3Cl)sc2n1 (racemic) [Example 191, (racemic)-N^2-(2,6-Dichloro-phenyl)-5-(2-methyl-piperidin-1-yl)-N^7-(4-trifluoromethyl-phenyl)-thiazolo[5,4-d]pyrimidine-2,7-diamine] |
| 48 | 15 | FC(F)(F)c1ccc(Nc2nc(N3CCCC3)nc3sc(Nc4c(Cl)cccc4Cl)nc23)cc1 [Example 58, N^2-(2,6-Dichloro-phenyl)-5-pyrrolidin-1-yl-N^7-(4-trifluoromethyl-phenyl)-thiazolo[5,4-d]pyrimidine-2,7-diamine] |
| 7 | 22 | Cc1cccc(C)c1Nc1nc2c(Nc3ccc(S(=O)(=O)N4CCCC4)cc3)ncnc2s1 [Example 104, N^2-(2,6-Dimethyl-phenyl)-N^7-[4-(pyrrolidine-1-sulfonyl)-phenyl]-thiazolo[5,4-d]pyrimidine-2,7-diamine] |
| 5 | 13 | Cc1cccc(Cl)c1Nc1nc2c(Nc3ccc(C(F)(F)F)nc3)ncnc2s1 [Example 15, N^2-(2-Chloro-6-methyl-phenyl)-N^7-(6-trifluoromethyl-pyridin-3-yl)-thiazolo[5,4-d]pyrimidine-2,7-diamine] |
